From patent US20260226077A1, “TYPE II TOPOISOMERASE INHIBITORS AND METHODS OF MAKING AND USING THEREOF” (Ohio State Innovation Foundation, priority 2023, published 2026)
Values after ≈ are worked out from the molar mass of the structure shown. Marks after values point to notes of the source that are not given here.

Legend:
[1] = system: FQ-R MRSA; experiment: MIC against FQ-R MRSA isolates; assay type: cell-based, Staphylococcus aureus; conditions: Staphylococcus aureus, MRSA; n = 15 (147), n = 25 (284, 319, gepotidacin)
[2] = system: D83N; experiment: MIC against D83N mutant; assay type: cell-based
[3] = target: hERG (Homo sapiens, UniProt Q12809); experiment: hERG inhibition; assay type: cell-based
hERG, sequence (Q12809 whole entry): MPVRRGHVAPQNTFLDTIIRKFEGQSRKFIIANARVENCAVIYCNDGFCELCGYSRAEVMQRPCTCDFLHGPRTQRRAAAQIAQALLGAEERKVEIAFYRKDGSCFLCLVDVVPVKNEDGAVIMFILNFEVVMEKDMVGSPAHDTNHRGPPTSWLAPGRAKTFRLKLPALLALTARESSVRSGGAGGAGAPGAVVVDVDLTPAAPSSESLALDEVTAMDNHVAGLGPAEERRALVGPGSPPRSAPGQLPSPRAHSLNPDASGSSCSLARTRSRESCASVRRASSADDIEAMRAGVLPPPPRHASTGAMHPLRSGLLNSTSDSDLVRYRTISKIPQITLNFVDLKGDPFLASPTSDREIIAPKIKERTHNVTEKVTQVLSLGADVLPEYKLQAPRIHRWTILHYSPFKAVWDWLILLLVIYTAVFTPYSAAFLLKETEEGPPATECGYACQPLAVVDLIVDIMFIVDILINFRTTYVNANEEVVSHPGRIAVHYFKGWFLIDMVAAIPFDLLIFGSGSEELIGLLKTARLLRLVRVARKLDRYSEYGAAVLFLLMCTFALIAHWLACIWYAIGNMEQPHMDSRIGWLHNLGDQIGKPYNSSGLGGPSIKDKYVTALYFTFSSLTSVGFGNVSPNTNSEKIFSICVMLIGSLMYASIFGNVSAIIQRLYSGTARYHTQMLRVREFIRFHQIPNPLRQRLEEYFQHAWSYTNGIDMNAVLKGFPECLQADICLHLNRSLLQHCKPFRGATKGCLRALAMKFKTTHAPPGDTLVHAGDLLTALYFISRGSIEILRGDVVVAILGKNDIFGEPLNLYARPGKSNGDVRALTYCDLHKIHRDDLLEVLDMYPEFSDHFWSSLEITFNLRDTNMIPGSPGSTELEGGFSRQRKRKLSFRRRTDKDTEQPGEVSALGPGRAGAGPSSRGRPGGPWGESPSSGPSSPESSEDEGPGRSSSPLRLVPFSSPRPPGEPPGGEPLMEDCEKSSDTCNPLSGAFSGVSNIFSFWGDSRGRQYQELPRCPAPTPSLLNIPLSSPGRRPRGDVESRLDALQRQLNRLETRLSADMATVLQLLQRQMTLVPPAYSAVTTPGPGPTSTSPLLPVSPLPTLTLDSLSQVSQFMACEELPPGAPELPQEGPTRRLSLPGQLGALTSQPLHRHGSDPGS

[4] = Mouse microsomal stability; assay type: in vitro ADME; conditions: microsomes, read-out: Mouse microsom. t1/2
[5] = Rat microsomal stability; assay type: in vitro ADME; conditions: microsomes, read-out: Rat microsom. t1/2
[6] = Monkey microsomal stability; assay type: in vitro ADME; conditions: microsomes, read-out: Monkey microsom. t1/2
[7] = system: S. aureus ATCC 29213; assay type: cell-based; conditions: Using S. aureus ATCC 29213 and four additional strains of S. aureus
[8] = system: Staphylococcus aureus; experiment: MIC50/90 against Staphylococcus aureus isolates; assay type: cell-based; conditions: n = 30 (147), n = 100 (284, 319, gepotidacin)
[9] = system: Staphylococcus epidermidis; experiment: MIC50/90 against Staphylococcus epidermidis; assay type: cell-based; conditions: n = 10
[10] = system: Streptococcus pneumoniae; experiment: MIC50/90 against Streptococcus pneumoniae; assay type: cell-based
[11] = system: Streptococcus pyogenes; experiment: MIC50/90 against Streptococcus pyogenes; assay type: cell-based
[12] = system: Moraxella catarrhalis; experiment: MIC50/90 against Moraxella catarrhalis; assay type: cell-based; conditions: n = 10
[13] = system: Haemophilus influenzae; experiment: MIC50/90 against Haemophilus influenzae; assay type: cell-based; conditions: n = 10
[14] = system: Mycobacterium abscessus; experiment: MIC50/90 against Mycobacterium abscessus; assay type: cell-based; conditions: Mycobacteroides abscessus; n = 10
[15] = system: Mycobacterium avium; experiment: MIC50 against Mycobacterium avium; assay type: cell-based; conditions: n = 4
[16] = system: Bacillus anthracis; experiment: microbe, parasite or virus in culture; assay type: cell-based
[17] = system: Yersinia pestis; experiment: microbe, parasite or virus in culture; assay type: cell-based
[18] = system: Burkholderia mallei; experiment: microbe, parasite or virus in culture; assay type: cell-based
[19] = system: Burkholderia pseudomallei; experiment: microbe, parasite or virus in culture; assay type: cell-based
[20] = system: Neisseria gonorrhoeae; experiment: MIC50/90 against Neisseria gonorrhoeae; assay type: cell-based
[21] = system: Escherichia coli 25922; experiment: MIC against Escherichia coli 25922; assay type: cell-based
[22] = system: Acinetobacter baumannii 19606; experiment: MIC against Acinetobacter baumannii 19606; assay type: cell-based
[23] = system: Pseudomonas aeruginosa 27853; experiment: MIC against Pseudomonas aeruginosa 27853; assay type: cell-based
[24] = system: CYP 1A, 2B6, 2C8, 2C9, 2C19, 2D6, 3A; experiment: CYP inhibition at 10 μM; assay type: in vitro ADME
[25] = In vitro micronucleus; assay type: cell-based
[26] = system: S. aureus 29213; experiment: MIC against S. aureus 29213; assay type: cell-based; conditions: Staphylococcus aureus
[27] = system: S. aureus USA300; experiment: MIC against S. aureus USA300; assay type: cell-based; conditions: Staphylococcus aureus
[28] = system: S. aureus CF isolate; experiment: MIC against S. aureus CF isolate; assay type: cell-based; conditions: Staphylococcus aureus
[29] = in vivo
[30] = not given; remark: listed apart in the source
[31] = not given; remark: listed apart in the source
[32] = not given; remark: listed apart in the source
[33] = not given; remark: listed apart in the source
[34] = not given; remark: listed apart in the source
[35] = all channels
[36] = in vivo; conditions: mouse, Mouse Vdss (L)
[37] = in vitro; conditions: mouse, hepatocytes
[38] = in vitro; conditions: human, hepatocytes
[39] = in vitro; conditions: human, plasma
[40] = Mouse pharmacokinetics
[41] = Neisseria gonorrhoeae, n = 17 (284, gepotidacin), n = 110 (147)
[42] = 284: as free base in immunocompetent mice, 147: no footnote
[43] = as mesylate salt in neutropenic mice

SMILES: COc1ccc2ncc(F)c(C[C@H](O)[C@H]3OC[C@H](NCc4cnc5c(n4)NC(=O)CO5)CO3)c2n1 [Compound 284, 6-(((2-((S)-2-(3-fluoro-6-methoxy-1,5-naphthyridin-4-yl)-1-hydroxyethyl)-trans-1,3-dioxan-5-yl)amino)methyl)-2H-pyrazino[2,3-b][1,4]oxazin-3(4H)-one]
- MIC90 [1]: 0.12 µg/mL (≈ 0.247 µM)
- MIC [2]: 1 to 2 µg/mL (≈ 2.06 to 4.11 µM)
- IC50 [3]: 104 µM
- half-life [4]: > 2 h
- half-life [5]: > 2 h
- half-life [6]: > 2 h
- Resistance freq. (at 8X MIC) [7]: <9.62 × 10^−10**
- MIC50 [8]: 0.12 µg/mL (≈ 0.247 µM)
- MIC90 [8]: 0.25 µg/mL (≈ 0.514 µM)
- MIC50 [9]: 0.12 µg/mL (≈ 0.247 µM)
- MIC90 [9]: 0.25 µg/mL (≈ 0.514 µM)
- MIC50 ([10]; n = 5 (147), n = 10 (others)): 0.5 µg/mL (≈ 1.03 µM)
- MIC90 ([10]; n = 10): 1 µg/mL (≈ 2.06 µM)
- MIC50 ([11]; n = 5 (147), n = 10 (others)): 0.5 µg/mL (≈ 1.03 µM)
- MIC90 ([11]; n = 10): 2 µg/mL (≈ 4.11 µM)
- MIC50 [12]: 0.12 µg/mL (≈ 0.247 µM)
- MIC90 [12]: 0.25 µg/mL (≈ 0.514 µM)
- MIC50 [13]: 4 µg/mL (≈ 8.22 µM)
- MIC90 [13]: 8 µg/mL (≈ 16.4 µM)
- MIC50 [14]: > 64 µg/mL
- MIC90 [14]: > 64 µg/mL
- MIC50 [15]: 4 µg/mL (≈ 8.22 µM)
- MIC50 ([16]; read-out: Bacillus anthracis MIC50 (μg/mL)): 0.06 µg/mL (≈ 0.123 µM)
- MIC90 ([16]; read-out: Bacillus anthracis MIC90 (μg/mL)): 0.25 µg/mL (≈ 0.514 µM)
- MIC50 ([17]; read-out: Yersinia pestis MIC50 (μg/mL)): 2 µg/mL (≈ 4.11 µM)
- MIC90 ([17]; read-out: Yersinia pestis MIC90 (μg/mL)): 8 µg/mL (≈ 16.4 µM)
- MIC90 ([18]; Burkholderia mallei, read-out: Burkholderia mallei MIC90 (μg/mL)): > 64 µg/mL
- Burkholderia mallei MIC50 ([18]; n = 10): 16 µg/mL
- MIC50 ([19]; read-out: Burkholderia pseudomallei MIC50 (μg/mL)): 32 µg/mL (≈ 65.8 µM)
- MIC90 ([19]; read-out: Burkholderia pseudomallei MIC90 (μg/mL)): 64 µg/mL (≈ 132 µM)
- MIC50 ([20]; Neisseria gonorrhoeae, n = 100): 0.5 µg/mL (≈ 1.03 µM)
- MIC50 [20, 41]: 1 µg/mL (≈ 2.06 µM)
- MIC90 [20, 41]: 2 µg/mL (≈ 4.11 µM)
- Neisseria gonorrhoeae MIC90 ([20]; n = 100): 2 µg/mL
- Escherichia coli 25922 MIC [21]: 16 µg/mL
- MIC [22]: 8 to 16 µg/mL (≈ 16.4 to 32.9 µM)
- MIC [23]: 64 µg/mL (≈ 132 µM)
- CYP inhibition at 10 μM (1A, 2B6, 2C8, 2C9, 2C19, 2D6, 3A) [24]: No issues
- In vitro micronucleus [25]: Pos. at high
- MIC [26]: 0.125 to 0.25 µg/mL (≈ 0.257 to 0.514 µM)
- MIC [27]: 0.125 to 0.25 µg/mL (≈ 0.257 to 0.514 µM)
- MIC [28]: 0.125 to 0.25 µg/mL (≈ 0.257 to 0.514 µM)
- Mouse Vdss (L) [29]: 0.53*** L
- Mouse plasma protein binding (% unbound): 31 % unbound
- Human plasma protein binding (% unbound) [30]: 10 % unbound
- Rat plasma protein binding (% unbound) [31]: 4 % unbound
- Dog plasma protein binding (% unbound) [32]: 20 % unbound
- Kinetic solubility at pH 7.4-7.5 (μM) [33]: > 200 μM
- Safety44 screen at 100 μM [34]: None >50%
- Comprehensive in vitro proarrhythmia assay at 100 μM, inhibition [35]: All <25%
- Vd [36]: 0.36 L
- half-life [37]: > 4 h
- half-life [38]: > 4 h
- half-life [39]: > 2 h
- Mouse PK AUClast, unbound (μg*h/mL) after 50 mg/kg oral dose [40, 42]: 5** μg*h/mL
- Mouse PK AUClast, unbound (μg*h/mL) after 50 mg/kg oral dose [40, 43]: 12*** μg*h/mL
- Mouse Clunbound (mL/min/kg) [40, 42]: 15*** mL/min/kg
- Mouse Clunbound (mL/min/kg) [40, 43]: 45**** mL/min/kg
